Laboratory results reported in US6950754B2, “Apparatus and method for automated protein design” (The California Institute of Technology, priority 1997, dated 2005).
No end group written: not given here.

What was measured:
[1] = Thermal melts monitored by circular dichroism at 222 nm (coiled coil peptides); assay type: physicochemical; conditions: surface designs on GCN4-p1, pH 7.0, 40 μM
Description: A 1 mm pathlength cell was used and the temperature was controlled by a thermoelectric unit. Thermal melts were performed in the same buffer using two degree temperature increments with an averaging time of 10 s and an equilibration time of 90 s. […] Peptide concentrations were determined from the tyrosine absorbance at 275 nm (Huyghues-Despointes, et al., supra).

[2] = Size exclusion chromatography, oligomerization state (coiled coil peptides); assay type: physicochemical; conditions: pH 7.0, 0° C.
Description: Size exclusion chromatography: Size exclusion chromatography was performed with a Synchropak GPC 100 column (25 cm by 4.6 mm) at pH 7.0 in 50 mM phosphate and 150 mM NaCl at 0° C. […] 10 μl injections of 1 mM peptide solution were chromatographed at 0.20 ml/min and monitored at 275 nm. Peptide concentrations were approximately 60 μM as estimated from peak heights. Samples were run in triplicate.
Size exclusion chromatography was performed with a PolyLC hydroxyethyl A column (20 cm×9 mm) at pH 7.0 in 50 mM phosphate and 150 mM NaCl at 0° C. […] 5 μl injections of ˜1 mM peptide solution were chromatographed at 0.50 ml/min and monitored at 214 nm. Samples were run in triplicate.

[3] = Circular dichroism spectra, ellipticity at 222 nm and helical content (coiled coil peptides); assay type: physicochemical; conditions: 1° C., 40 μM
Description: Circular dichroism CD spectra were measured on an Aviv 62DS spectrometer at pH 7.0 in 50 mM phosphate, 150 mM NaCl and 40 μM peptide. A 1 mm pathlength cell was used and the temperature was controlled by a thermoelectric unit.
Circular dichroism spectroscopy (CD) was used to assay the secondary structure and thermal stability of the designed peptides.
The secondary structures and thermal stabilities of the peptides were assessed by circular dichroism (CD) spectroscopy.

[4] = assay type: physicochemical; conditions: pH 5.5

Row | Substance | Tm [1] [°C] | N (oligomerization state) [2] | [θ]222 [3] [deg cm^2/dmol] | limited solubility [4] [µM]
1 | Ac-RMAALEAKVAALLAKNAALEAEVAALKALVGER-NH2 [6F] | 73 | – | – | –
2 | Ac-RMARLEAKVAALLAKNRRLEREVARLKALVGER-NH2 [6C] | 69 | 2 | – | –
3 | Ac-RMEKLEDKVRELLRKNRRLEEEVRRLKELVGER-NH2 [6A] | 71 | 2 | – | –
4 | Ac-RMEKLEQKVKELLRKNERLEEEVERLKQLVGER-NH2 [6B] | 72 | 2 | – | –
5 | MTWKYIINGKTLKGETTTEIVDAATFEKVWKQYLNDNGIDGEFTYDDATKTLTITE [α70] | – | – | – | 100

Now from value to substance, other results behind:

Row | Tm [1] [°C] | N (oligomerization state) [2] | [θ]222 [3] [deg cm^2/dmol] | Substance | limited solubility [4] [µM]
6 | 15 | 2 | −12000 | Ac-RMNTLERKVAKLLSKNANLEHEVNTLKQLVGER-NH2 [6E] | –
7 | 71 | 2 | – | Ac-RMRELEEKVRRLLRKNEDLEREVKRLKELVGER-NH2 [6D] | –
